This note sets out measurements from US12173020B2, “New-type oxazolidinone compounds and preparation method therefor” (priority 2019, dated 2024).

Assay [1] relates to vancomycin-resistant Enterococcus (VRE). Kind of assay: agar dilution method, inhibitory effect on VRE. It counts as cell-based. To be noted: for MIC50: Enterococcus, read-out: Minimum inhibitory concentration (MIC50, μg/ml) VRE. From the text:
(§1) In order to determine the antibacterial activity of these new oxazolidinone-based compounds, an agar dilution method was used to test the inhibitory effect on methicillin-resistant Staphylococcus aureus (MRSA) and vancomycin-resistant Enterococcus (VRE). The bacteria inhibition effect was expressed as minimum inhibitory concentration (MIC50, μg/ml) The test results are shown in the following table.
On the technique in general: Agar dilution tests growth on a series of plates holding different concentrations.

Assay [2] deals with methicillin-resistant Staphylococcus aureus (MRSA). The assay can be described thus: agar dilution method, inhibitory effect on MRSA. In kind it is cell-based. As to conditions: for MIC50: Staphylococcus aureus, read-out: Minimum inhibitory concentration (MIC50, μg/ml) MRSA.
Excerpt: as §1

Take `Cn1nnc(-c2ccc(-c3ccc(N4C[C@H](C(O)C(F)F)OC4=O)cc3F)cn2)n1.O=P(O)(O)O` (stereo partly drawn) [compound 127, (R)-3-(3-fluoro-4-(6-(2-methyl-2H-tetrazol-5-yl)pyridin-3-yl)phenyl)-5-(1-hydroxy-2-difluoroethyl) oxazolidin-2-one phosphate]: the “Minimum inhibitory concentration (MIC50, μg/ml) VRE” value in assay [1] turned out to be 0.7 µg/mL. Besides, in assay [2], the “Minimum inhibitory concentration (MIC50, μg/ml) MRSA” value was 0.6 µg/mL.
For `Cn1nnc(-c2ccc(-c3ccc(N4C[C@@H](C(OP(=O)(O)O)C(F)F)OC4=O)cc3F)cn2)n1` (stereo partly drawn) [compound 128, (S)-3-(3-fluoro-4-(6-(2-methyl-2H-tetrazol-5-yl)pyridin-3-yl)phenyl)-5-(1-hydroxy-2-difluoroethyl) oxazolidin-2-one phosphate] the same measures were 0.5 µg/mL and 0.5 µg/mL.
Regarding `Cn1nnc(-c2ccc(-c3ccc(N4C[C@H](C(O)CF)OC4=O)cc3F)cn2)n1.O=P(O)(O)O` (stereo partly drawn) [compound 129, (R)-3-(3-fluoro-4-(6-(2-methyl-2H-tetrazol-5-yl)pyridin-3-yl)phenyl)-5-(1-hydroxy-2-fluoroethyl) oxazolidin-2-one phosphate], the figures for the MIC50 in assay [1] and in assay [2] were 0.3 µg/mL and 0.5 µg/mL, respectively.
For `Cn1nnc(-c2ccc(-c3ccc(N4C[C@@H](C(O)CF)OC4=O)cc3F)cn2)n1.O=P(O)(O)O` (stereo partly drawn) [compound 130, (S)-3-(3-fluoro-4-(6-(2-methyl-2H-tetrazol-5-yl)pyridin-3-yl)phenyl)-5-(1-hydroxy-2-fluoroethyl) oxazolidin-2-one phosphate] the same measures were 0.2 µg/mL and 0.2 µg/mL.
For `Cn1nnc(-c2ccc(-c3ccc(N4C[C@H](C(O)C5CC5)OC4=O)cc3F)cn2)n1.O=P(O)(O)O` (stereo partly drawn) [compound 131, (R)-3-(3-fluoro-4-(6-(2-methyl-2H-tetrazol-5-yl)pyridin-3-yl)phenyl)-5-(1-hydroxy-1-cyclopropylmethyl) oxazolidin-2-one phosphate] the same measures were 0.1 µg/mL and 0.2 µg/mL.
With `Cn1nnc(-c2ccc(-c3ccc(N4C[C@@H](C(O)C5CC5)OC4=O)cc3F)cn2)n1.O=P(O)(O)O` (stereo partly drawn) [compound 132, (S)-3-(3-fluoro-4-(6-(2-methyl-2H-tetrazol-5-yl)pyridin-3-yl)phenyl)-5-(1-hydroxy-1-cyclopropylmethyl) oxazolidin-2-one phosphate], the MIC50 in assay [1] and in assay [2] was 0.3 µg/mL each time.
Take `CCn1nnc(-c2ccc(-c3ccc(N4C[C@H](C(O)C(F)F)OC4=O)cc3F)cn2)n1.O=P(O)(O)O` (stereo partly drawn) [compound 133, (R)-3-(3-fluoro-4-(6-(2-ethyl-2H-tetrazol-5-yl)pyridin-3-yl)phenyl)-5-(1-hydroxy-2-difluoroethyl) oxazolidin-2-one phosphate]: the “Minimum inhibitory concentration (MIC50, μg/ml) VRE” value in assay [1] came to 0.2 µg/mL. The “Minimum inhibitory concentration (MIC50, μg/ml) MRSA” value in assay [2] is 0.3 µg/mL.
For `CCn1nnc(-c2ccc(-c3ccc(N4C[C@@H](C(O)C(F)F)OC4=O)cc3F)cn2)n1.O=P(O)(O)O` (stereo partly drawn) [compound 134, (S)-3-(3-fluoro-4-(6-(2-ethyl-2H-tetrazol-5-yl)pyridin-3-yl)phenyl)-5-(1-hydroxy-2-difluoroethyl) oxazolidin-2-one phosphate] the same measures were 0.5 µg/mL and 0.5 µg/mL.
`CCn1nnc(-c2ccc(-c3ccc(N4C[C@H](C(O)CF)OC4=O)cc3F)cn2)n1.O=P(O)(O)O` (stereo partly drawn) [compound 135, (R)-3-(3-fluoro-4-(6-(2-ethyl-2H-tetrazol-5-yl)pyridin-3-yl)phenyl)-5-(1-hydroxy-2-fluoroethyl) oxazolidin-2-one phosphate]: the MIC50 in assay [1] was 0.3 µg/mL; in assay [2] it was 0.4 µg/mL.
With `CCn1nnc(-c2ccc(-c3ccc(N4C[C@@H](C(O)CF)OC4=O)cc3F)cn2)n1.O=P(O)(O)O` (stereo partly drawn) [compound 136, (S)-3-(3-fluoro-4-(6-(2-ethyl-2H-tetrazol-5-yl)pyridin-3-yl)phenyl)-5-(1-hydroxy-2-fluoroethyl) oxazolidin-2-one phosphate], the MIC50 in assay [1] was determined as 0.2 µg/mL; in assay [2], 0.4 µg/mL.
For `CCn1nnc(-c2ccc(-c3ccc(N4C[C@H](C(O)C5CC5)OC4=O)cc3F)cn2)n1.O=P(O)(O)O` (stereo partly drawn) [compound 137, (R)-3-(3-fluoro-4-(6-(2-ethyl-2H-tetrazol-5-yl)pyridin-3-yl)phenyl)-5-(1-hydroxy-1-cyclopropylmethyl) oxazolidin-2-one phosphate] the same measures were 1.1 µg/mL and 1.5 µg/mL.
For `CCn1nnc(-c2ccc(-c3ccc(N4C[C@@H](C(O)C5CC5)OC4=O)cc3F)cn2)n1.O=P(O)(O)O` (stereo partly drawn) [compound 138, (S)-3-(3-fluoro-4-(6-(2-ethyl-2H-tetrazol-5-yl)pyridin-3-yl)phenyl)-5-(1-hydroxy-1-cyclopropylmethyl) oxazolidin-2-one phosphate], the MIC50 in assay [1] and in assay [2] was 1 µg/mL throughout.
For `CCCn1nnc(-c2ccc(-c3ccc(N4C[C@H](C(OP(=O)(O)O)C(F)F)OC4=O)cc3F)cn2)n1` (stereo partly drawn) [compound 139, (R)-3-(3-fluoro-4-(6-(2-propyl-2H-tetrazol-5-yl)pyridin-3-yl)phenyl)-5-(1-hydroxy-2-difluoroethyl) oxazolidin-2-one phosphate], the “Minimum inhibitory concentration (MIC50, μg/ml) VRE” value in assay [1] stood at 0.9 µg/mL. Besides, the “Minimum inhibitory concentration (MIC50, μg/ml) MRSA” value in assay [2] came out at 0.8 µg/mL.
As to `CCCn1nnc(-c2ccc(-c3ccc(N4C[C@@H](C(O)C(F)F)OC4=O)cc3F)cn2)n1.O=P(O)(O)O` (stereo partly drawn) [compound 140, (S)-3-(3-fluoro-4-(6-(2-propyl-2H-tetrazol-5-yl)pyridin-3-yl)phenyl)-5-(1-hydroxy-2-difluoroethyl) oxazolidin-2-one phosphate], in assay [1], the “Minimum inhibitory concentration (MIC50, μg/ml) VRE” value was 0.4 µg/mL. Besides, the “Minimum inhibitory concentration (MIC50, μg/ml) MRSA” value in assay [2] is 0.4 µg/mL.
Turning to `CCCn1nnc(-c2ccc(-c3ccc(N4C[C@H](C(O)CF)OC4=O)cc3F)cn2)n1.O=P(O)(O)O` (stereo partly drawn) [compound 141, (R)-3-(3-fluoro-4-(6-(2-propyl-2H-tetrazol-5-yl)pyridin-3-yl)phenyl)-5-(1-hydroxy-2-fluoroethyl) oxazolidin-2-one phosphate], the MIC50 in assay [1] turned out to be 0.2 µg/mL; in assay [2], 0.3 µg/mL.
Regarding `CCCn1nnc(-c2ccc(-c3ccc(N4C[C@@H](C(O)CF)OC4=O)cc3F)cn2)n1.O=P(O)(O)O` (stereo partly drawn) [compound 142, (S)-3-(3-fluoro-4-(6-(2-propyl-2H-tetrazol-5-yl)pyridin-3-yl)phenyl)-5-(1-hydroxy-2-fluoroethyl) oxazolidin-2-one phosphate], the MIC50 in assay [1] and in assay [2] was 0.2 µg/mL throughout.
Turning to `CCCn1nnc(-c2ccc(-c3ccc(N4C[C@H](C(O)C5CC5)OC4=O)cc3F)cn2)n1.O=P(O)(O)O` (stereo partly drawn) [compound 143, (R)-3-(3-fluoro-4-(6-(2-propyl-2H-tetrazol-5-yl)pyridin-3-yl)phenyl)-5-(1-hydroxy-1-cyclopropylmethyl) oxazolidin-2-one phosphate], the MIC50 was found to be 0.2 µg/mL in assay [1] and 0.3 µg/mL in assay [2].
For `CCCn1nnc(-c2ccc(-c3ccc(N4C[C@@H](C(O)C5CC5)OC4=O)cc3F)cn2)n1.O=P(O)(O)O` (stereo partly drawn) [compound 144, (S)-3-(3-fluoro-4-(6-(2-propyl-2H-tetrazol-5-yl)pyridin-3-yl)phenyl)-5-(1-hydroxy-1-cyclopropylmethyl) oxazolidin-2-one phosphate] the same measures were 0.4 µg/mL and 0.4 µg/mL.
